The term EC50 denotes the midpoint of the concentration-response curve. A lower EC50 goes with greater potency.

For 36 compounds, EC50 results are on record in patent US10059713B2 (Takeda Pharmaceutical Company Limited, priority 2014, dated 2018).

In the assay the target is human GPR43 (Homo sapiens (Human), UniProt O15552). Kind of assay: Ca-Flux functional assay: determination of agonist/positive allosteric modulator (PAM) activity. The assay is classed as cell-based. As to conditions: CHO-K1 Gα16 cells stably expressing human GPR43; compound added with EC20 sodium acetate; intracellular Ca2+ by FLIPR; does not distinguish agonist from PAM. A digest of the protocol: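 CHO-K1 Gα16 cells stably expressing human GPR43, loaded with Calcium 5 dye 1 h; compounds (10-point half-log from 10 μM) added with sodium acetate at EC20. FLIPR calcium signal gave EC50, two wells per point; agonists and PAMs not distinguished.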
Sequence of human GPR43 (O15552 whole entry): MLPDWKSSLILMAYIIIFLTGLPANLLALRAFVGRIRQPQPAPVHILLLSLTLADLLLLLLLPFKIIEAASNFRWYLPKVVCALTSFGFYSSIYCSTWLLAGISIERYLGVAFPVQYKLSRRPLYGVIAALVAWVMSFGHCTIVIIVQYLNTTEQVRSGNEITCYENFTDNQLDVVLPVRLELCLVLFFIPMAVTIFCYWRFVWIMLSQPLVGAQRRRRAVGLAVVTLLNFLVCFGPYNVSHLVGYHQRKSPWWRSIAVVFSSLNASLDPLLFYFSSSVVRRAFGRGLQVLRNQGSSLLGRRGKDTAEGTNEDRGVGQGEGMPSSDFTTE
Regarding `Cc1nc(N2CCO[C@H](C(F)(F)F)C2)c2[nH]c(N)c(S(=O)(=O)c3cccc(F)c3F)c2n1` [Example 285, 7-(2,3-difluorobenzenesulfonyl)-2-methyl-4-[(2S)-2-(trifluoromethyl)morpholin-4-yl]-5H-pyrrolo[3,2-d]pyrimidin-6-amine], a half-maximal effect (EC50) was put at 2 nM.

Turning to `Cc1nc(N2CCOC3(CC3)C2)c2[nH]c(N)c(S(=O)(=O)c3ccccc3)c2n1` [Example 205, 7-(benzenesulfonyl)-2-methyl-4-{4-oxa-7-azaspiro[2.5]octan-7-yl}-5H-pyrrolo[3,2-d]pyrimidin-6-amine], a half-maximal effect (EC50) was put at 7 nM.

`COc1ccc(S(=O)(=O)c2c(N)[nH]c3c(N4CCOC(C)C4)ncnc23)cc1Cl` (stereo not drawn) [Example 123, 7-(3-chloro-4-methoxybenzenesulfonyl)-4-(2-methylmorpholin-4-yl)-5H-pyrrolo[3,2-d]pyrimidin-6-amine] came in with a half-maximal effective concentration (EC50) of 115 nM.

For the compound `Cc1nc(N2CCC(F)(F)CC2)c2[nH]c(N)c(S(=O)(=O)c3ccccc3F)c2n1` [Example 186, 4-(4,4-difluoropiperidin-1-yl)-7-(2-fluorobenzenesulfonyl)-2-methyl-5H-pyrrolo[3,2-d]pyrimidin-6-amine], the EC50 was 14 nM.

`CC1CN(c2ncnc3c(S(=O)(=O)C4CCN(C(=O)OCc5ccccc5)CC4)c(N)[nH]c23)CCO1` (stereo not drawn) [Example 206, benzyl 4-{[6-amino-4-(2-methylmorpholin-4-yl)-5H-pyrrolo[3,2-d]pyrimidin-7-yl]sulfonyl}piperidine-1-carboxylate] showed an EC50 of 2640 nM.

Consider `Cc1ccc(S(=O)(=O)c2c(N)[nH]c3c(C4CCCCC4)ncnc23)cc1` [Example 45, 4-cyclohexyl-7-[(4-methylbenzene)sulfonyl]-5H-pyrrolo[3,2-d]pyrimidin-6-amine], for which the concentration for a half-maximal effect (EC50) was 84 nM.

`CC1(COc2ncnc3c(S(=O)(=O)c4ccccc4)c(N)[nH]c23)CC1` [Example 173, 7-(benzenesulfonyl)-4-[(1-methylcyclopropyl)methoxy]-5H-pyrrolo[3,2-d]pyrimidin-6-amine] showed an EC50 of 364 nM.

Turning to `Nc1[nH]c2cc(Cl)cnc2c1S(=O)(=O)c1ccccc1` [Example 10, 3-(benzenesulfonyl)-6-chloro-1H-pyrrolo[3,2-b]pyridin-2-amine], the EC50 came to 626 nM.

As for `Cc1nc(N2CCO[C@@H](C)C2)c2[nH]c(N)c(S(=O)(=O)c3ccccc3Cl)c2n1` [Example 261, 7-(2-chlorobenzenesulfonyl)-2-methyl-4-[(2S)-2-methylmorpholin-4-yl]-5H-pyrrolo[3,2-d]pyrimidin-6-amine], the EC50 was 14 nM.

`CN(c1ncnc2c(S(=O)(=O)c3ccccc3)c(N)[nH]c12)C1CC1` [Example 98, 7-(benzenesulfonyl)-4-N-cyclopropyl-4-N-methyl-5H-pyrrolo[3,2-d]pyrimidine-4,6-diamine] came in with an EC50 of 648 nM.

Turning to `Nc1[nH]c2c(C3CCCCC3)nncc2c1S(=O)(=O)c1ccccc1` [Example 228, 3-(benzenesulfonyl)-7-cyclohexyl-1H-pyrrolo[2,3-d]pyridazin-2-amine], a half-maximal response (EC50) required 256 nM.

The compound `Nc1[nH]c2c(N3CCOC4(CCCC4)C3)ncnc2c1S(=O)(=O)c1ccccc1` [Example 102, 7-(benzenesulfonyl)-4-{6-oxa-9-azaspiro[4.5]decan-9-yl}-5H-pyrrolo[3,2-d]pyrimidin-6-amine] showed an EC50 of 18 nM.

Take `Cc1nc(N2CCOC(C(F)(F)F)C2)c2[nH]c(N)c(S(=O)(=O)c3ccccc3F)c2n1` (stereo not drawn) [Example 231, 7-(2-fluorobenzenesulfonyl)-2-methyl-4-[2-(trifluoromethyl)morpholin-4-yl]-5H-pyrrolo[3,2-d]pyrimidin-6-amine]: a half-maximal effect (EC50) was put at 2 nM. Against the preceding compound, the EC50 is about 9-fold lower.

Take `Nc1[nH]c2c(C3=CCCCC3)ncnc2c1S(=O)(=O)c1ccccc1F` [Example 38, 4-(cyclohex-1-en-t-yl)-7-[(2-fluorobenzene)sulfonyl]-5H-pyrrolo[3,2-d]pyrimidin-6-amine]: the EC50 came to 16 nM. This EC50 lies about 8-fold higher than the previous one.

Compound `CC1CCCN(c2ncnc3c(S(=O)(=O)c4ccccc4)c(N)[nH]c23)C1` (stereo not drawn) [Example 58, 7-(benzenesulfonyl)-4-(3-methylpiperidin-1-yl)-5H-pyrrolo[3,2-d]pyrimidin-6-amine] yielded an EC50 of 17 nM.

`CCN(Cc1cnn(C)c1)c1ncnc2c(S(=O)(=O)c3ccccc3)c(N)[nH]c12` [Example 64, 7-(benzenesulfonyl)-4-N-ethyl-4-N-[(1-methyl-1H-pyrazol-4-yl)methyl]-5H-pyrrolo[3,2-d]pyrimidine-4,6-diamine] returned an EC50 of 2350 nM.

Compound `COC1CCN(c2ncnc3c(S(=O)(=O)c4ccccc4)c(N)[nH]c23)CC1` [Example 28, 7-(benzenesulfonyl)-4-(4-methoxypiperidin-1-yl)-5H-pyrrolo[3,2-d]pyrimidin-6-amine] registered an EC50 of 647 nM. Compared with the last compound, the EC50 is about 3.6-fold lower.

Regarding `Nc1[nH]c2c(C3CCCCC3)ncnc2c1S(=O)(=O)c1ccc(F)cc1` [Example 27, 4-cyclohexyl-7-[(4-fluorobenzene)sulfonyl]-5H-pyrrolo[3,2-d]pyrimidin-6-amine], the EC50 amounted to 89 nM.

For `COc1ccc(S(=O)(=O)c2c(N)[nH]c3c(N4C[C@@H](C)O[C@@H](C)C4)ncnc23)cc1` [Example 130, 4-[(2R,6S)-2,6-dimethylmorpholin-4-yl]-7-(4-methoxybenzenesulfonyl)-5H-pyrrolo[3,2-d]pyrimidin-6-amine], the midpoint of the response, the EC50, lay at 20 nM. This EC50 lies about 4.5-fold lower than the previous one.

Regarding `CC1(C)CN(c2nncc3c(S(=O)(=O)c4ccccc4F)c(N)[nH]c23)CCO1` [Example 234, 7-(2,2-dimethylmorpholin-4-yl)-3-(2-fluorobenzenesulfonyl)-1H-pyrrolo[2,3-d]pyridazin-2-amine], the EC50 amounted to 69 nM.

In the case of `Cc1nc(N2CCOC(C)(C)C2)c2[nH]c(N)c(S(=O)(=O)c3cccc(F)c3F)c2n1` [Example 280, 7-(2,3-difluorobenzenesulfonyl)-4-(2,2-dimethylmorpholin-4-yl)-2-methyl-5H-pyrrolo[3,2-d]pyrimidin-6-amine], it took 3 nM to reach a half-maximal effect (EC50). This EC50 is about 23-fold lower than that of the compound before.

In turn, `Nc1[nH]c2c(C3CCCCC3)ncnc2c1S(=O)(=O)c1ccc(OC(F)F)cc1` [Example 36, 4-cyclohexyl-7-{[4-(difluoromethoxy)benzene]sulfonyl}-5H-pyrrolo[3,2-d]pyrimidin-6-amine] gave a concentration for a half-maximal effect (EC50) of 87 nM.

In turn, `Cc1nc(N2C[C@H](C)OC[C@@H]2C)c2[nH]c(N)c(S(=O)(=O)c3ccccc3)c2n1` [Example 220, 7-(benzenesulfonyl)-4-[(2S,5S)-2,5-dimethylmorpholin-4-yl]-2-methyl-5H-pyrrolo[3,2-d]pyrimidin-6-amine] returned an EC50 of 21 nM.

In turn, `Nc1[nH]c2c(N3CCCCCC3)ncnc2c1S(=O)(=O)c1ccccc1` [Example 48, 4-(azepan-1-yl)-7-(benzenesulfonyl)-5H-pyrrolo[3,2-d]pyrimidin-6-amine] showed an EC50 of 209 nM.

Turning to `Nc1[nH]c2c(-c3ccncc3)ncnc2c1S(=O)(=O)c1ccccc1` [Example 66, 7-(benzenesulfonyl)-4-(pyridin-4-yl)-5H-pyrrolo[3,2-d]pyrimidin-6-amine], the EC50 is 2410 nM.

The compound `CN(CC(F)F)c1ncnc2c(S(=O)(=O)c3ccccc3)c(N)[nH]c12` [Example 96, 7-(benzenesulfonyl)-4-N-(2,2-difluoroethyl)-4 N-methyl-5H-pyrrolo[3,2-d]pyrimidine-4,6-diamine] showed an EC50 of 162 nM. This EC50 is about 15-fold lower than that of the compound before.

For the compound `Nc1[nH]c2c(OC3CCCC3)ncnc2c1S(=O)(=O)c1ccccc1` [Example 202, 7-(benzenesulfonyl)-4-(cyclopentyloxy)-5H-pyrrolo[3,2-d]pyrimidin-6-amine], the concentration for a half-maximal effect (EC50) amounted to 50 nM.

As for `CC(Oc1ncnc2c(S(=O)(=O)c3ccccc3)c(N)[nH]c12)c1ccccc1` (stereo not drawn) [Example 164, 7-(benzenesulfonyl)-4-(1-phenylethoxy)-5H-pyrrolo[3,2-d]pyrimidin-6-amine], the EC50 worked out at 25 nM.

In the case of `Cc1nc(N2C[C@@H](C)OC[C@H]2C)c2[nH]c(N)c(S(=O)(=O)c3ccccc3F)c2n1` [Example 232, 4-[(2R,5R)-2,5-dimethylmorpholin-4-yl]-7-(2-fluorobenzenesulfonyl)-2-methyl-5H-pyrrolo[3,2-d]pyrimidin-6-amine], a half-maximal response (EC50) required 3 nM. Compared with the last compound, the EC50 is about 8.3-fold lower.

Consider `Cc1cc(CN(C)c2ncnc3c(S(=O)(=O)c4ccccc4)c(N)[nH]c23)no1` [Example 99, 7-(benzenesulfonyl)-4-N-methyl-4-N-[(5-methyl-1,2-oxazol-3-yl)methyl]-5H-pyrrolo[3,2-d]pyrimidine-4,6-diamine], for which the midpoint of the response, the EC50, lay at 4670 nM.

Compound `COc1ccc(S(=O)(=O)c2c(N)[nH]c3c(C4CCCCC4)ncnc23)cc1` [Example 5, 4-cyclohexyl-7-[(4-methoxybenzene)sulfonyl]-5H-pyrrolo[3,2-d]pyrimidin-6-amine] showed an EC50 of 80 nM.

`Nc1[nH]c2c(C3=CCCCC3)ncnc2c1S(=O)(=O)CC1CCOCC1` [Example 109, 4-(cyclohex-1-en-1-yl)-7-(oxan-4-ylmethanesulfonyl)-5H-pyrrolo[3,2-d]pyrimidin-6-amine]: it took 5020 nM to reach a half-maximal effect (EC50).

`Nc1[nH]c2c(OCC3CC3)ncnc2c1S(=O)(=O)c1ccccc1` [Example 55, 7-(benzenesulfonyl)-4-(cyclopropylmethoxy)-5H-pyrrolo[3,2-d]pyrimidin-6-amine] had an EC50 of 131 nM.

Regarding `Nc1[nH]c2c(C3=CCCCC3)ncnc2c1S(=O)(=O)c1ccccn1` [Example 20, 4-(cyclohex-1-en-1-yl)-7-(pyridine-2-sulfonyl)-5H-pyrrolo[3,2-d]pyrimidin-6-amine], the EC50 is 317 nM.

`C[C@@H]1CN(c2ncnc3c(S(=O)(=O)c4ccccc4)c(N)[nH]c23)C[C@H](C)O1` [Example 75, 7-(benzenesulfonyl)-4-[(2R,6S)-2,6-dimethylmorpholin-4-yl]-5H-pyrrolo[3,2-d]pyrimidin-6-amine] returned an EC50 of 14 nM.

`Nc1[nH]c2c(C3=CCCCC3)ncnc2c1S(=O)(=O)c1ccccc1` [Example 2, 7-(benzenesulfonyl)-4-(cyclohex-1-en-1-yl)-5H-pyrrolo[3,2-d]pyrimidin-6-amine]: the midpoint of the response, the EC50, lay at 21 nM.
